Converted amounts (≈) assume the structure as drawn. Like-named read-outs stand apart in the source and are kept apart here.
Legend:
[1] = system: Acinetobacter calcoaceticus 15473A; test: Minimum inhibitory concentration (agar 2-fold dilution); type: cell-based; details: A. calcoaceticus 15473A, Muller-Hinton agar, 37° C., 20 hours, read-out: Minimum Inhibitory Concentration
Method: (§1) The minimum inhibitory concentration was determined by diluting the test compounds according to 2-fold dilution, suspending them in Muller-Hinton agar medium, inoculating 2 μl of the suspension containing the test strains having 10^7 CFU (Colony Forming Unit) per 1 ml into the medium and then culturing the test strains at 37° C. for 20 hours.

[2] = system: Citrobacter diversus 2046E; test: as above; type: cell-based; details: Citrobacter koseri; C. diversus 2046E; Muller-Hinton agar, 37° C., 20 hours; read-out: Minimum Inhibitory Concentration
Method: as §1

[3] = system: Enterobacter cloacae IND + VE 1194E; test: as above; type: cell-based; details: E. cloacae IND + VE 1194E, Muller-Hinton agar, 37° C., 20 hours, read-out: Minimum Inhibitory Concentration
Method: as §1

Enterobacter cloacae P99 = test: as above; type: cell-based; details: P99, 20 h, read-out: Minimum Inhibitory Concentration
Method: as §1

Escherichia coli 10536 = test: as above; type: cell-based; details: Escherichia coli; E. coli 10536; Muller-Hinton agar, 37° C., 20 hours; read-out: Minimum Inhibitory Concentration
Method: as §1

Escherichia coli 3190Y = test: as above; type: cell-based; details: E. coli 3190Y, Muller-Hinton agar, 37° C., 20 hours, read-out: Minimum Inhibitory Concentration
Method: as §1

Escherichia coli 851E = test: as above; type: cell-based; details: E. coli 851E, Muller-Hinton agar, 37° C., 20 hours
Method: as §1

[4] = system: Escherichia coli TEM1 1193E; test: as above; type: cell-based; details: TEM11193E, 20 h, read-out: Minimum Inhibitory Concentration
Method: as §1

[5] = system: Escherichia coli TEM3 3455E; test: as above; type: cell-based; details: TEM33455E, 20 h, read-out: Minimum Inhibitory Concentration
Method: as §1

[6] = system: Escherichia coli TEM5 3739E; test: as above; type: cell-based; details: TEM53739E, 20 h, read-out: Minimum Inhibitory Concentration
Method: as §1

[7] = system: Escherichia coli TEM7 3457E; test: as above; type: cell-based; details: TEM73457E, 20 h, read-out: Minimum Inhibitory Concentration
Method: as §1

[8] = system: Escherichia coli TEM9 2639E; test: as above; type: cell-based; details: TEM92639E, 20 h, read-out: Minimum Inhibitory Concentration
Method: as §1

[9] = system: Klebsiella aerogenes K1 + 1082E; test: as above; type: cell-based; details: 20 h, read-out: Minimum Inhibitory Concentration
Method: as §1

[10] = system: Klebsiella aerogenes SHV-1 1976E; test: as above; type: cell-based; details: SHV11976E, K. aerogenes SHV-1 1976E, Muller-Hinton agar, 37° C., 20 hours
Method: as §1

Proteus vulgaris 6059A = test: as above; type: cell-based; details: P. vulgaris 6059A, Muller-Hinton agar, 37° C., 20 hours, read-out: Minimum Inhibitory Concentration
Method: as §1

[11] = system: Pseudomonas aeruginosa 10145; test: as above; type: cell-based; details: Pseudomonas aeruginosa; P. aeruginosa 10145; Muller-Hinton agar, 37° C., 20 hours; read-out: Minimum Inhibitory Concentration
Method: as §1

[12] = system: Pseudomonas aeruginosa 1912E; test: as above; type: cell-based; details: P. aeruginosa 1912E, Muller-Hinton agar, 37° C., 20 hours, read-out: Minimum Inhibitory Concentration
Method: as §1

[13] = system: Pseudomonas aeruginosa 6065; test: as above; type: cell-based; details: Pseudomonas aeruginosa; P. aeruginosa 6065; Muller-Hinton agar, 37° C., 20 hours; read-out: Minimum Inhibitory Concentration
Method: as §1

[14] = system: Salmonella typhimurium 14028A; test: as above; type: cell-based; details: Salmonella enterica; S. typhimurium 14028A; Muller-Hinton agar, 37° C., 20 hours; read-out: Minimum Inhibitory Concentration
Method: as §1

[15] = system: Serratia marcescens 1826E; test: as above; type: cell-based; details: S. marcescens 1826E, Muller-Hinton agar, 37° C., 20 hours, read-out: Minimum Inhibitory Concentration
Method: as §1

[16] = system: Staphylococcus aureus 241; test: as above; type: cell-based; details: Staphylococcus aureus; S. aureus 241; Muller-Hinton agar, 37° C., 20 hours; read-out: Minimum Inhibitory Concentration
Method: as §1

[17] = system: Staphylococcus aureus 6538P; test: as above; type: cell-based; details: read-out: Minimum Inhibitory Concentration
Method: as §1

Staphylococcus aureus 77 = test: as above; type: cell-based; details: Staphylococcus aureus; S. aureus 77; Muller-Hinton agar, 37° C., 20 hours; read-out: Minimum Inhibitory Concentration
Method: as §1

[18] = system: Staphylococcus aureus epidermidis 887E; test: as above; type: cell-based; details: S. aureus epidermidis 887E, Muller-Hinton agar, 37° C., 20 hours, read-out: Minimum Inhibitory Concentration
Method: as §1

[19] = system: Staphylococcus aureus giorgio; test: as above; type: cell-based; details: S. aureus giorgio, Muller-Hinton agar, 37° C., 20 hours, read-out: Minimum Inhibitory Concentration
Method: as §1

[20] = system: Streptococcus faecalis 29212A; test: as above; type: cell-based; details: Enterococcus faecalis; S. faecalis 29212A; Muller-Hinton agar, 37° C., 20 hours; read-out: Minimum Inhibitory Concentration
Method: as §1

[21] = Pharmacokinetic properties in rats (blood concentration by agar well biological assay); set-up: species or system SD rats (male); details: rat, in vivo, iv, 20 mg/kg
Method: The pharmacokinetic properties of the compound of the present invention were determined using SD rats (.male.) weighing 230±10 g. Specifically,the test samples were injected into femoral vein in an amount of 20 mg/kg to 4 to 5 test animals. Blood was taken from femoral vein 1, 2.5, 5, 10, 20, 40, 60, 120 and 180 minutes after administration and then subjected to a biological assay using agar well method to measure the blood concentration.

Row | Structure (SMILES) | MIC [1] [µg/mL] | MIC [2] [µg/mL] | MIC [3] [µg/mL] | MIC (Enterobacter cloacae P99) [µg/mL] | MIC (Escherichia coli 10536) [µg/mL] | MIC (Escherichia coli 3190Y) [µg/mL] | MIC (Escherichia coli 851E) [µg/mL] | MIC [4] [µg/mL] | MIC [5] [µg/mL] | MIC [6] [µg/mL] | MIC [7] [µg/mL] | MIC [8] [µg/mL] | MIC [9] [µg/mL] | MIC [10] [µg/mL] | MIC (Proteus vulgaris 6059A) [µg/mL] | MIC [11] [µg/mL] | MIC [12] [µg/mL] | MIC [13] [µg/mL] | MIC [14] [µg/mL] | MIC [15] [µg/mL] | also measured
1 | Nc1nc(/C(=N/O[C@H](C(=O)O)c2ccc(O)c(O)c2)C(=O)N[C@@H]2C(=O)N3C(C(=O)[O-])=C(/C=C/C[n+]4cnc(N)c5c4CCC5)CS[C@H]23)cs1 [Compound I-3a, 7-[(Z)-2-(2-aminothiazol-4-yl)-2-(α-carboxy-3,4-dihydroxybenzyloxyimino)acetamido]-3-[(E)-3-(4-amino-5,6-cyclopentanopyrimidinium-1-yl)-1-propen-1-yl]-3-cephem-4-carboxylate] | 0.5 (≈ 0.705 µM) | 0.063 (≈ 0.0889 µM) | 2 | 16 (≈ 22.6 µM) | 0.008 (≈ 0.0113 µM) | 0.031 (≈ 0.0437 µM) | 0.031 (≈ 0.0437 µM) | 0.063 (≈ 0.0889 µM) | 0.063 (≈ 0.0889 µM) | 0.5 (≈ 0.705 µM) | 0.13 (≈ 0.183 µM) | 2 (≈ 2.82 µM) | 0.063 (≈ 0.0889 µM) | 0.13 (≈ 0.183 µM) | 0.13 (≈ 0.183 µM) | 0.5 (≈ 0.705 µM) | 0.5 (≈ 0.705 µM) | 1 (≈ 1.41 µM) | 0.031 (≈ 0.0437 µM) | 0.5 (≈ 0.705 µM) | MIC [16]: > 128 µg/mL; MIC ([17]; 6538P, 20 h): 1 µg/mL (≈ 1.41 µM); MIC (Staphylococcus aureus 77): 4 µg/mL (≈ 5.64 µM); MIC [18]: 64 µg/mL (≈ 90.3 µM); MIC [19]: 1 µg/mL (≈ 1.41 µM); MIC [20]: 4 µg/mL (≈ 5.64 µM); AUC [21]: 36600 ng·h/mL; half-life [21]: 33 min
2 | Cc1c(N)nc[n+](C/C=C/C2=C(C(=O)[O-])N3C(=O)[C@@H](NC(=O)/C(=N\O[C@H](C(=O)O)c4ccc(O)c(O)c4)c4csc(N)n4)[C@H]3SC2)c1N [Compound I-4a, 7-[(Z)-2-(2-aminothiazol-4-yl)-2-(α-carboxy-3,4-dihydroxybenzyloxyimino)acetamido]-3-[(E)-3-(4,6-diamino-5-methylpyrimidinium-1-yl)-1-propen-1-yl]-3-cephem-4-carboxylate] | 0.5 (≈ 0.717 µM) | 0.13 (≈ 0.186 µM) | 2 | 8 (≈ 11.5 µM) | 0.008 (≈ 0.0115 µM) | 0.063 (≈ 0.0903 µM) | 0.063 (≈ 0.0903 µM) | 0.063 (≈ 0.0903 µM) | 0.25 (≈ 0.358 µM) | 2 (≈ 2.87 µM) | 0.25 (≈ 0.358 µM) | 2 (≈ 2.87 µM) | 0.063 (≈ 0.0903 µM) | 0.13 (≈ 0.186 µM) | 0.063 (≈ 0.0903 µM) | 0.5 (≈ 0.717 µM) | 4 (≈ 5.73 µM) | 1 (≈ 1.43 µM) | 0.016 (≈ 0.0229 µM) | 0.25 (≈ 0.358 µM) | MIC [16]: 64 µg/mL (≈ 91.7 µM); MIC ([17]; S. aureus 6538P, Muller-Hinton agar, 37° C., 20 hours): 0.5 µg/mL (≈ 0.717 µM); MIC (Staphylococcus aureus 77): 2 µg/mL (≈ 2.87 µM); MIC [18]: 16 µg/mL (≈ 22.9 µM); MIC [19]: 0.25 µg/mL (≈ 0.358 µM); MIC [20]: 4 µg/mL (≈ 5.73 µM); AUC [21]: 53100 ng·h/mL; half-life [21]: 53 min

From patent publication US5541175A, “Cephalosporin antibiotics” (Lucky, Ltd., priority 1993, dated 1996)
